Patent publication US8148391B2 (Cephalon, Inc., priority 2006, dated 2012)
pIC50: −log10 of the molar value. Counter-ions that a name gives are not always drawn. Like-named read-outs stand apart in the source and are kept apart here.

Experiments:
[1] = molecular target: T1, baculovirus-expressed ALK (Homo sapiens, UniProt Q9UM73); assay: ALK Kinase Assay (ELISA-type, time-resolved fluorescence); assay type: biochemical
T1 construct: host or cells: baculovirus expression system
Procedure, shortened: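 Substrate coating: phospholipase C-γ, 10 μg/mL in TBS. Kinase step: 30 ng/ml ALK, 15 min, 37° C. Detection and analysis: Eu-N1 PT66 antibody, with IC50 fitted as a sigmoidal variable-slope dose-response curve.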

[2] = molecular target: T2, c-Met (cytoplasmic domain) (Homo sapiens, UniProt P08581); assay: c-Met Kinase Assay (same methods as for ALK, with modifications); assay type: biochemical
T2 construct: 10 ng/mL c-Met (cytoplasmic domain, Invitrogen Corporation #PV3143); purchased Invitrogen Corporation PV3143
Procedure, shortened: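 This plate-based kinase format uses immobilized phospholipase C-γ as substrate, phosphorylated by c-Met cytoplasmic domain (10 ng/mL) at 37° C for 15 minutes.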

[3] = 1 μM ATP (Km level), read-out: ALK Activity (ALK Kinase Inhibition, IC50)
[4] = 1 μM ATP (Km level), read-out: cMet Activity (c-Met Kinase Inhibition, IC50)
[5] = ALK kinase inhibition, 1 μM ATP (Km level), read-out: ALK Activity
[6] = c-Met kinase inhibition, 1 μM ATP (Km level), read-out: cMet Activity
[7] = ALK kinase inhibition, 1 μM ATP, read-out: ALK Activity
[8] = c-Met kinase inhibition, 1 μM ATP, read-out: cMet Activity
[9] = 1 μM ATP (Km level), 30 ng/ml ALK, 37° C., 15 minutes, read-out: ALK Activity (ALK kinase inhibition, IC50 class)
[10] = 1 μM ATP (Km level), 10 ng/mL c-Met, read-out: cMet Activity (c-Met kinase inhibition, IC50 class)

T2 sequence (P08581 956-1390 limits assumed): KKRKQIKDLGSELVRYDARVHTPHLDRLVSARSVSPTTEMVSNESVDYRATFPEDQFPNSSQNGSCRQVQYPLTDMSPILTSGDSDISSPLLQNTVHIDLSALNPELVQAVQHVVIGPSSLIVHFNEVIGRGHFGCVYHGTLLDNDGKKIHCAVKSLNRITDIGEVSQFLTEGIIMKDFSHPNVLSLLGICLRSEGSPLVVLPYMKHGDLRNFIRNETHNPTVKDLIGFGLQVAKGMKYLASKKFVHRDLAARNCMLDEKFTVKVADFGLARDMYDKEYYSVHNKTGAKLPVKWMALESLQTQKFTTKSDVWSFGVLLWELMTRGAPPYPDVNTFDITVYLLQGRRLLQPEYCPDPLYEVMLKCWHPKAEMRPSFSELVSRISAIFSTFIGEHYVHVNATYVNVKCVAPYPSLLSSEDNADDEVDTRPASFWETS
T1 sequence (Q9UM73 19-1620): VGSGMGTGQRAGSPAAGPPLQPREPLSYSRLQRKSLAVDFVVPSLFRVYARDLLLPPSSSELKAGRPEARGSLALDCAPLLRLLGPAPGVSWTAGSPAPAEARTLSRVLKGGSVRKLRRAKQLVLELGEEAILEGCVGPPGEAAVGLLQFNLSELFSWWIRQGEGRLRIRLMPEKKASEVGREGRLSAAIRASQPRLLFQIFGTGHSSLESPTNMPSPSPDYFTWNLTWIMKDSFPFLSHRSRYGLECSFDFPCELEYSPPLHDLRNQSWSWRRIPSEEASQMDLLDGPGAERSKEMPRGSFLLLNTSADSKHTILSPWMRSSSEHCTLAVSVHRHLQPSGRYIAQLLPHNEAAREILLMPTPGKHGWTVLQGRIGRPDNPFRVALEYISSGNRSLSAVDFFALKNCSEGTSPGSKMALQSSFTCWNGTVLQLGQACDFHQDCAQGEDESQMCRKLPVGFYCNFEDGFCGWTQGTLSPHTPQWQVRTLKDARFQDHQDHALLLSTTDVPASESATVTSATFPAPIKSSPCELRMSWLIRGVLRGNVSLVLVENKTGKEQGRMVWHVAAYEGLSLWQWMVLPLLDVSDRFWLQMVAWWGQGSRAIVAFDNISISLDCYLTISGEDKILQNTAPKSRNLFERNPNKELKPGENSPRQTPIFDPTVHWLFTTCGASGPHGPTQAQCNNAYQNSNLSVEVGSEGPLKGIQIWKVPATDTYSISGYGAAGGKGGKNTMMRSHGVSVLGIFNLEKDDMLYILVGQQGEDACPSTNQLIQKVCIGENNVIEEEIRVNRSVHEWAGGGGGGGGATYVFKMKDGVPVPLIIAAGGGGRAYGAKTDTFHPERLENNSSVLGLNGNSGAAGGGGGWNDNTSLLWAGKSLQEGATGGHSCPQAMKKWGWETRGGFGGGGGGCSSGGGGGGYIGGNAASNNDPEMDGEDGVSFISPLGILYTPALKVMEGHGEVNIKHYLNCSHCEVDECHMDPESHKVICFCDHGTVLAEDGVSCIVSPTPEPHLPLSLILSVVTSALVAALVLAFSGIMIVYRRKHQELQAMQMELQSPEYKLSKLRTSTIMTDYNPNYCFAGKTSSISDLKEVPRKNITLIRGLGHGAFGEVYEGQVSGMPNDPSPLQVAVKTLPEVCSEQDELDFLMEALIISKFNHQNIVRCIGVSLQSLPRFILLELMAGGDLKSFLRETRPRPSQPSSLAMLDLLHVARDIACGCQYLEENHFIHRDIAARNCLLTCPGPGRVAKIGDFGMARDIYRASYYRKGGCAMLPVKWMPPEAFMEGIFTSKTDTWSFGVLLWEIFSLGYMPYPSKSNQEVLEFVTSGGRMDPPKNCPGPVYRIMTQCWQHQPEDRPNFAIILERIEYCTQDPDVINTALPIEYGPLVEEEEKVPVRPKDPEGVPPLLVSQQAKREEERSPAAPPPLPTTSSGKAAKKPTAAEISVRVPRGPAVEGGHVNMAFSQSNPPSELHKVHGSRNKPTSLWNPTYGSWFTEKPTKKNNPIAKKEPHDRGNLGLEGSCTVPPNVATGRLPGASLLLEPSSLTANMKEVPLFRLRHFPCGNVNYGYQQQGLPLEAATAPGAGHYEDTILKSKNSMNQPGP

Row | pIC50 [1, 5] | pIC50 [2, 6] | pIC50 [1, 7] | pIC50 [2, 8] | Compound | further results
1 |  |  |  |  | COc1cc2c(cc1Nc1ncc(Cl)c(Nc3ccccc3S(=O)(=O)N3CC[C@@H](N(C)C)C3)n1)CCN(CC(=O)N(C)C)CC2 [Example 845, 2-(7-{5-Chloro-4-[2-((R)-3-dimethylamino-pyrrolidine-1-sulfonyl)-phenylamino]-pyrimidin-2-ylamino}-8-methoxy-1,2,4,5-tetrahydro-benzo[d]azepin-3-yl)-N,N-dimethyl-acetamide] | pIC50 [1, 3]: > 7.00; pIC50 [2, 4]: < 5.00
2 | 5.00 to 6.00 | < 5.00 |  |  | CNC(=O)c1ccccc1Nc1nc(Nc2cccc3c2C(=O)N(C)CCN3C)ncc1Cl [Example 213, 2-[5-Chloro-2-(1,4-dimethyl-5-oxo-2,3,4,5-tetrahydro-1H-benzo[e][1,4]diazepin-6-ylamino)-pyrimidin-4-ylamino]-N-methyl-benzamide] | 
3 |  |  |  |  | COCCN1CCc2cc(Nc3ncc(Cl)c(Nc4ccccc4-c4nccn4C)n3)c(OC)cc2CC1 [Example 986, 5-Chloro-N*2*-[8-methoxy-3-(2-methoxy-ethyl)-2,3,4,5-tetrahydro-1H-benzo[d]azepin-7-yl]-N*4*-[2-(1-methyl-1H-imidazol-2-yl)-phenyl]-pyrimidine-2,4-diamine] | pIC50 [1, 3]: > 7.00; pIC50 [2, 4]: < 5.00
4 |  |  | > 7.00 | > 7.00 | CCN1CCNC(=O)c2ccc(Nc3ncc(Cl)c(Nc4ccccc4C(=O)NC)n3)cc21 [Example 1452, 2-[5-Chloro-2-(1-ethyl-5-oxo-2,3,4,5-tetrahydro-1H-benzo[e][1,4]diazepin-8-ylamino)-pyrimidin-4-ylamino]-N-methyl-benzamide] | 
5 |  |  | 6.00 to 7.00 | > 7.00 | CNC(=O)c1sccc1Nc1nc(Nc2ccc3c(c2)NC(=O)CN(C(C)=O)C3)ncc1Cl [Example 1849, 3-[2-(4-Acetyl-2-oxo-2,3,4,5-tetrahydro-1H-benzo[e][1,4]diazepin-8-ylamino)-5-chloro-pyrimidin-4-ylamino]-thiophene-2-carboxylic acid methyl amide] | 
6 |  |  |  |  | COc1cc2c(cc1Nc1ncc(Cl)c(N[C@H]3[C@@H](C(N)=O)[C@@H]4C=C[C@H]3C4)n1)CCN(CCS(C)(=O)=O)CC2 [Example 1128, (1S,2S,3R,4R)-3-{5-Chloro-2-[3-(2-methanesulfonyl-ethyl)-8-methoxy-2,3,4,5-tetrahydro-1H-benzo[d]azepin-7-ylamino]-pyrimidin-4-ylamino}-bicyclo[2.2.1]hept-5-ene-2-carboxylic acid amide] | pIC50 [1, 9]: > 7.00; pIC50 [2, 10]: < 5.00
7 | > 7.00 | > 7.00 |  |  | CNC(=O)c1ccccc1Nc1nc(Nc2ccc3c(c2)C2CN(S(C)(=O)=O)CC3O2)ncc1Cl (single isomer, unassigned) [Example 183, 2-[5-Chloro-2-(10-methanesulfonyl-12-oxa-10-aza-tricyclo[6.3.1.0*2,7*]dodeca-2(7),3,5-trien-4-ylamino)-pyrimidin-4-ylamino]-N-methyl-benzamide] | 
8 |  |  | 5.00 to 6.00 | < 5.00 | CNC(=O)c1cc(C)cc(C)c1Nc1nc(Nc2ccc3c(c2)CN(C)C(=O)CC3)ncc1Cl [Example 1801, 2-[5-Chloro-2-(2-methyl-3-oxo-2,3,4,5-tetrahydro-1H-benzo[c]azepin-8-ylamino)-pyrimidin-4-ylamino]-3,5,N-trimethyl-benzamide] | 
9 |  |  | > 7.00 | > 7.00 | CC1(C)CCC(=O)Nc2cc(Nc3ncc(Cl)c(Nc4ccccc4S(=O)(=O)N4CCC(O)C4)n3)ccc21 (stereo not shown) [Example 1621, 8-{5-Chloro-4-[2-(3-hydroxy-pyrrolidine-1-sulfonyl)-phenylamino]-pyrimidin-2-ylamino}-5,5-dimethyl-1,3,4,5-tetrahydro-benzo[b]azepin-2-one] | 
10 |  |  |  |  | COc1cc(N2CCOCC2)ccc1Nc1nc(Nc2ccc3c(c2)CCCC(=O)N3C(C)C)ncc1Cl [Example 666, 7-[5-Chloro-4-(2-methoxy-4-morpholin-4-yl-phenylamino)-pyrimidin-2-ylamino]-1-isopropyl-1,3,4,5-tetrahydro-benzo[b]azepin-2-one] | pIC50 [1, 3]: 6.00 to 7.00; pIC50 [2, 4]: 5.00 to 6.00
11 | > 7.00 | 6.00 to 7.00 |  |  | NC(=O)[C@@H]1[C@H](Nc2nc(Nc3ccc4c(c3)CCC(=O)CC4)ncc2Cl)[C@H]2C=C[C@@H]1C2 (relative stereo) [Example 173, (2-exo,3-exo)-3-[5-Chloro-2-(7-oxo-6,7,8,9-tetrahydro-5H-benzocyclo-hepten-2-ylamino)-pyrimidin-4-ylamino]-bicyclo[2.2.1]hept-5-ene-2-carboxylic acid amide; hydrochloride] | 
12 |  |  | > 7.00 | 5.00 to 6.00 | COc1cc2c(cc1Nc1ncc(Cl)c(Nc3ccccc3OCC#N)n1)CCOC(=O)N2C [Example 1516, {2-[5-Chloro-2-(3-methoxy-5-methyl-6-oxo-5,6,8,9-tetrahydro-7-oxa-5-aza-benzocyclohepten-2-ylamino)-pyrimidin-4-ylamino]-phenoxy}-acetonitrile] | 
13 |  |  | < 5.00 | 5.00 to 6.00 | CN1C(=O)OCCc2cc(Nc3ncc(Cl)c(Nc4ccccc4-c4cc[nH]n4)n3)ccc21 [Example 1767, 2-{5-Chloro-4-[2-(1H-pyrazol-3-yl)-phenylamino]-pyrimidin-2-ylamino}-5-methyl-8,9-dihydro-5H-7-oxa-5-aza-benzocyclohepten-6-one] | 
14 |  |  |  |  | COc1cccc(C(=O)NCC#N)c1Nc1nc(Nc2ccc3c(c2)C(C)(C)CCC(=O)N3)ncc1Cl [Example 1064, 2-[5-Chloro-2-(5,5-dimethyl-2-oxo-2,3,4,5-tetrahydro-1H-benzo[b]azepin-7-ylamino)-pyrimidin-4-ylamino]-N-cyanomethyl-3-methoxy-benzamide] | pIC50 [1, 9]: 5.00 to 6.00; pIC50 [2, 10]: 5.00 to 6.00
15 | > 7.00 | 5.00 to 6.00 |  |  | CCN1C(=O)C(C)(C)CCc2c1ccc(Nc1ncc(Cl)c(Nc3ccccc3C(=O)NC)n1)c2OC [Example 144, 2-[5-Chloro-2-(1-ethyl-6-methoxy-3,3-dimethyl-2-oxo-2,3,4,5-tetrahydro-1H-benzo[b]azepin-7-ylamino)-pyrimidin-4-ylamino]-N-methyl-benzamide] | 
16 |  |  |  |  | CCN1CCCOc2cc(Nc3ncc(Cl)c(Nc4ccsc4C(=O)NC)n3)ccc21 [Example 1409, 3-[5-Chloro-2-(9-ethyl-6,7,8,9-tetrahydro-5-oxa-9-aza-benzocyclohepten-3-ylamino)-pyrimidin-4-ylamino]-thiophene-2-carboxylic acid methyl amide] | pIC50 [1, 9]: 6.00 to 7.00; pIC50 [2, 10]: 6.00 to 7.00
17 |  |  | > 7.00 | 5.00 to 6.00 | CC1(C)CCCN(CCN2CCCC2)c2cc(Nc3ncc(Cl)c(N[C@H]4[C@@H](C(N)=O)[C@@H]5C=C[C@H]4C5)n3)ccc21 [Example 1606, (1S,2S,3R,4R)-3-{5-Chloro-2-[5,5-dimethyl-1-(2-pyrrolidin-1-yl-ethyl)-2,3,4,5-tetrahydro-1H-benzo[b]azepin-8-ylamino]-pyrimidin-4-ylamino}-bicyclo[2.2.1]hept-5-ene-2-carboxylic acid amide] | 
18 | > 7.00 | 6.00 to 7.00 |  |  | CN1C(=O)CCCc2cc(Nc3ncc(Cl)c(Nc4ccc(N5CCOCC5)cc4C(N)=O)n3)ccc21 [Example 355, 2-[5-Chloro-2-(1-methyl-2-oxo-2,3,4,5-tetrahydro-1H-benzo[b]azepin-7-ylamino)pyrimidin-4-ylamino]-5-morpholin-4-yl-benzamide] | 
19 | 6.00 to 7.00 | > 7.00 |  |  | CNC(=O)c1sccc1Nc1nc(Nc2ccc3c(c2)N(C(C)=O)CC(=O)NC3)ncc1Cl [Example 1878, 3-[2-(1-Acetyl-3-oxo-2,3,4,5-tetrahydro-1H-benzo[e][1,4]diazepin-8-ylamino)-5-chloro-pyrimidin-4-ylamino]-thiophene-2-carboxylic acid methyl amide] | 
20 | 6.00 to 7.00 | < 5.00 |  |  | Cn1ccnc1-c1ccccc1Nc1nc(Nc2ccc3c(c2)CCC(F)(F)CC3)ncc1Cl [Example 219, 5-Chloro-N*2*-(7,7-difluoro-6,7,8,9-tetrahydro-5H-benzocyclohepten-2-yl)-N*4*-[2-(1-methyl-1H-imidazol-2-yl)-phenyl]-pyrimidine-2,4-diamine] | 
21 |  |  |  |  | COCCN1CCc2ccc(Nc3ncc(C(F)(F)F)c(N[C@H]4[C@@H](C(N)=O)[C@@H]5C=C[C@H]4C5)n3)cc2CC1 [Example 934, (1S,2S,3R,4R)-3-{2-[3-(2-Methoxy-ethyl)-2,3,4,5-tetrahydro-1H-3-benzazepin-7-ylamino]-5-trifluoromethyl-pyrimidin-4-ylamino}-bicyclo[2.2.1]hept-5-ene-2-carboxylic acid amide] | pIC50 [1, 3]: > 7.00; pIC50 [2, 4]: > 7.00
22 |  |  |  |  | CC1(C)CCC(=O)Nc2cc(Nc3ncc(Cl)c(Nc4c(F)cccc4C(=O)NCC#N)n3)ccc21 [Example 1080, 2-[5-Chloro-2-(5,5-dimethyl-2-oxo-2,3,4,5-tetrahydro-1H-benzo[b]azepin-8-ylamino)-pyrimidin-4-ylamino]-N-cyanomethyl-3-fluoro-benzamide] | pIC50 [1, 9]: > 7.00; pIC50 [2, 10]: > 7.00

Row | Compound | pIC50 [1, 5] | pIC50 [2, 6] | pIC50 [1, 7] | pIC50 [2, 8] | further results
23 | CNS(=O)(=O)c1ccccc1Nc1nc(Nc2ccc3c(c2)C2CCC3CNC2)ncc1Cl (stereo not shown) [Example 285, 2-[2-(10-Aza-tricyclo[6.3.2.0*2,7*]trideca-2,4,6-trien-4-ylamino)-5-chloro-pyrimidin-4-ylamino]-N-methyl-benzenesulfonamide] | > 7.00 | > 7.00 |  |  | 
